System: mice
Assay: Y-maze test in mice given scopolamine
Type: in vivo, mouse
Details: based on total motor activity and correct alternation rate, scopolamine-treated mice
Protocol: The Y-maze test was performed in mice divided into three types A, B, and C. The mice were placed in a Y-maze and allowed to move freely for 6 minutes. The sequence of entries into each arm and the total number of arm entries were measured since mice have the habit of always choosing a new arm of the maze. In order to evaluate the degree of memory impairment, the correct alternation rate was calculated based on the percentage of correct arm entries out of the total number of arm entries. Mice of types A, B, and C received drugs as shown below. […] The total number of entries and percentage of correct alternations were analyzed based on data obtained from the Y-maze test. Four mice from each type were examined. The following animals were used in the experiments. • Species: mouse • Strain: Crj:ICR • Sex: male • Age in weeks: 4

In the case of `COc1ccccc1OCC(O)COC(N)=O` (stereo not shown) [Methocarbamol, methocarbamol], the “Effect on cognitive function (in words)” value is reported as “had the effect of improving cognitive function”.

From patent publication US12502371B2, “Drug for treating and preventing dementia” (Numan Labo LLC, priority 2019, dated 2025)
